# Test results taken from patent US20210387966A1, “2-AMINO-N-HETEROARYL-NICOTINAMIDES AS NAV1.8 INHIBITORS” (Merck Sharp & Dohme Corp., priority 2018, published 2021).
# Target: T1, human Nav1.8 channels (Homo sapiens, UniProt Q9Y5Y9)
# T1 construct: expressed in transfected cells
# Test: Nav1.8 Qube automated patch-clamp assay
# Format: cell-based
# Settings: human Nav1.8 stably expressed in HEK 293 cells; whole-cell voltage clamp, room temperature; resting or inactivated state not specified; read-out: IC50 values (nM) for Examples in the Nav1.8 Qube Assay
# Protocol: Compounds were tested on human Nav1.8 and Nav1.5 channels stably expressed in human embryo kidney (HEK) 293 cells. Sodium current measurements on Qube® were conducted as follows: automated 384-well patch-clamp assays on the Qube® platform (Sophion Biosciences) were used to measure the inhibition of sodium flow through human Nav1.8 and Nav1.5 channels. Whole-cell voltage-clamp recordings were performed in QChips® (Sophion Biosciences) at room temperature. Nav1.8 current measurements on Qube® were obtained as follows: Nav1.8 currents were elicited with a 10 second 1 Hertz (Hz) pulse train from a holding potential of −90 millivolts (mV), delivered to the cells once per minute in the control condition (DMSO only) and after compound addition. The 1 hertz pulse train stimulation consisted of ten test pulses to 10 millivolt (mV) for 20 milliseconds (ms), each of which was followed by a 980 millisecond repolarization to −67 millivolts. At the end of the 10 second pulse train stimulation, a second hyperpolarization step to −100 millivolt (mV) was used to recover Nav1.8 from fast inactivation. The peak currents elicited by the 1st and 10th test pulses were used to determine IC50 values for resting inhibition and inactivated state inhibition. Nav1.5 current measurements on Qube® were obtained as follows: Nav1.5 currents were elicited with a 20 second 3 Hertz pulse train in the control condition (DMSO only) and after compound addition. The pulse train consisted of sixty 20 millisecond test pulses to 0 millivolt from a holding potential of −80 millivolt (mV). The average peak currents elicited by the last 3 test pulses were used to determine IC50 values for Nav1.5 inhibition.
# The following buffers were used for the Qube® recordings: External buffer for Nav1.8 Qube® recording: 150 NaCl, 2 CaCl2, 5 KCl, 1 Mg Cl2, 10 HEPES, 12 Dextrose; External buffer for Qube® Nav1.5 recording: 120 N-Methyl-D-Glucamine, 40 NaCl, 1 KCl, 2.7 CaCl2, 5 HEPES, 0.5 MgCl2: and Internal buffer for Qube® recording: 120 CsF, 30 CsCl, 10 EGTA, 5 HEPES, 5 NaF, 2 MgCl2.
# For all Qube® experiments offline analysis was used to determine percent inhibition as a function of drug concentration. IC50 values were determined by fitting to the Hill equation.
# T1 sequence (Q9Y5Y9 whole entry): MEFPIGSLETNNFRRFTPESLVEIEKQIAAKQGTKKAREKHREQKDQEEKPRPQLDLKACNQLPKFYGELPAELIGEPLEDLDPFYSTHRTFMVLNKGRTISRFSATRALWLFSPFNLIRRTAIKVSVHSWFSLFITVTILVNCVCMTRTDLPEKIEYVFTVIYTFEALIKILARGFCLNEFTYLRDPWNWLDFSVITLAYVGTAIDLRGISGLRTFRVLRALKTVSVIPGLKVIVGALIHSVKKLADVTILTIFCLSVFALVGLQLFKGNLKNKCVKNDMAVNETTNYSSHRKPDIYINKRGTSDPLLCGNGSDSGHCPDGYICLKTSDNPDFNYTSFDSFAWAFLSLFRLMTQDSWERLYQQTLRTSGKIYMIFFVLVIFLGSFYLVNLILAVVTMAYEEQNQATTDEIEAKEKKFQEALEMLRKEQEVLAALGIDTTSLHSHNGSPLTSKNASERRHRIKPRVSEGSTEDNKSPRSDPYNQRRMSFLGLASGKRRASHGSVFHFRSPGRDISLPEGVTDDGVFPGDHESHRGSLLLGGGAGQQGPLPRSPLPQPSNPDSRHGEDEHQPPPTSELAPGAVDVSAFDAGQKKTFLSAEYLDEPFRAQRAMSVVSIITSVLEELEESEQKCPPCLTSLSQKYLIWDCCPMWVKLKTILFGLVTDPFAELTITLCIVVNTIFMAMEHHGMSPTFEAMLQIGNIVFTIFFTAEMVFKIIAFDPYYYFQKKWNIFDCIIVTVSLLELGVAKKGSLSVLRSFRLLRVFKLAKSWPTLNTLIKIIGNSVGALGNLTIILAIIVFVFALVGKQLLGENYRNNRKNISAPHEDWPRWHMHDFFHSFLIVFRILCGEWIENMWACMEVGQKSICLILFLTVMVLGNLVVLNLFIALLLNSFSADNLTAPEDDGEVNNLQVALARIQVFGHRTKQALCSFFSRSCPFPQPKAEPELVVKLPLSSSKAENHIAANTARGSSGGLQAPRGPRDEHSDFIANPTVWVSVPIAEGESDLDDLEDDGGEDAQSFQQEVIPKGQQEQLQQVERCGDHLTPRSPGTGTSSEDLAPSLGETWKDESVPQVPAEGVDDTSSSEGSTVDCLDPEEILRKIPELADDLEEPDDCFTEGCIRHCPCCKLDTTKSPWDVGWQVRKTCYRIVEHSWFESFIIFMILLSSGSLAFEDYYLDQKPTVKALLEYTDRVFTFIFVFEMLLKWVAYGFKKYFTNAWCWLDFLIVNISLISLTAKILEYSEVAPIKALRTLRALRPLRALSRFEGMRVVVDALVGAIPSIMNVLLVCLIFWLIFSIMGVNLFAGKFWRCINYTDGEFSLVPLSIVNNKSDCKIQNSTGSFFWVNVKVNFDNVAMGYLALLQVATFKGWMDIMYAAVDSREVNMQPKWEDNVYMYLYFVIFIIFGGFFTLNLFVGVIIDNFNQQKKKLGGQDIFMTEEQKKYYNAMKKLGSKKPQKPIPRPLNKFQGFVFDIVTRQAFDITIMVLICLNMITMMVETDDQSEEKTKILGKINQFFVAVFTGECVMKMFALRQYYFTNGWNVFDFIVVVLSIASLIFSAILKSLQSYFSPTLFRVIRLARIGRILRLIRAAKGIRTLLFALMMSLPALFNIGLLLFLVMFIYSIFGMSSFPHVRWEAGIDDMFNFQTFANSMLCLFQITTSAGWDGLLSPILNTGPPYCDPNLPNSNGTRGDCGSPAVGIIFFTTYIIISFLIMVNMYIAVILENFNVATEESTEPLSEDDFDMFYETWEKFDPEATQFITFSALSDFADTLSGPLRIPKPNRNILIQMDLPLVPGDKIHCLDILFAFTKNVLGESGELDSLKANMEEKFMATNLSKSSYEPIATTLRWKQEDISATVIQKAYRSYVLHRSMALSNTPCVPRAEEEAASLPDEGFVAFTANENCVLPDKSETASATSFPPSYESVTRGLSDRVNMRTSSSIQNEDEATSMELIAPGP
row,Structure (SMILES),IC50
1,"NS(=O)(=O)c1cc(NC(=O)c2cc(C(F)(F)F)cnc2N2CC3CC2CC3(F)F)ccn1 (single isomer, unassigned) [Example 72, 2-[(1S,4S or 1R,4R)-5,5-difluoro-2-azabicyclo[2.2.1]heptan-2-yl]-N-(2-sulfamoyl-4-pyridyl)-5-(trifluoromethyl)pyridine-3-carboxamide]",714 nM
2,"C[C@H]1CCN(c2ncc(C(F)(F)F)cc2C(=O)Nc2ccnc(S(N)(=O)=O)c2)CCO1 [Example 108, 2-[(7S)-7-methyl-1,4-oxazepan-4-yl]-N-(2-sulfamoyl-4-pyridyl)-5-(trifluoromethyl)pyridine-3-carboxamide]",191 nM
3,"NS(=O)(=O)c1cncc(NC(=O)c2cc(C(F)(F)F)cnc2N2CCCCCC2)c1 [Example 145, 2-(azepan-1-yl)-N-(5-sulfamoyl-3-pyridyl)-5-(trifluoromethyl) pyridine-3-carboxamide]",161 nM
4,"CC12CCN(c3ncc(C(F)(F)F)cc3C(=O)Nc3ccnc(S(N)(=O)=O)c3)CC1C2(F)F (single isomer, unassigned) [Example 62, 2-[(1R,6R or 1S,6S)-7,7-difluoro-6-methyl-3-azabicyclo[4.1.0]heptan-3-yl]-N-(2-sulfamoyl-4-pyridyl)-5-(trifluoromethyl)pyridine-3-carboxamide]",105 nM
5,"NS(=O)(=O)c1cc(NC(=O)c2cc(C3CC3)nnc2N2CCCC(F)(F)CC2)ccn1 [Example 39, 6-cyclopropyl-3-(4,4-difluoroazepan-1-yl)-N-(2-sulfamoylpyridin-4-yl)pyridazine-4-carboxamide]",441 nM
6,"NS(=O)(=O)c1cc(NC(=O)c2cc(C(F)(F)F)cnc2N2CC3CC(F)(F)C3C2)ccn1 (single isomer, unassigned) [Example 65, 2-((1S,5R or 1R,5S)-6,6-difluoro-3-azabicyclo[3.2.0]heptan-3-yl)-N-(2-sulfamoylpyridin-4-yl)-5-(trifluoromethyl)nicotinamide]",94 nM
7,"N#Cc1noc(NC(=O)c2cc(C(F)(F)F)cnc2N2CCCCCC2)n1 [Example 45, 2-(azepan-1-yl)-N-(3-cyano-1,2,4-oxadiazol-5-yl)-5-(trifluoromethyl)pyridine-3-carboxamide]",1790 nM
8,"COc1cc(NC(=O)c2cc(C(F)(F)F)cnc2N2CCCC(F)(F)CC2)ccn1 [Example 146, 2-(4,4-difluoroazepan-1-yl)-N-(2-methoxy-4-pyridyl)-5-(trifluoro-methyl)pyridine-3-carboxamide]",177 nM
9,"NS(=O)(=O)c1cc(NC(=O)c2cc(C3CC3)c(C3CC3)nc2N2CCC(F)(F)CC2)ccn1 [Example 12, 5,6-dicyclopropyl-2-(4,4-difluoropiperidin-1-yl)-N-(2-sulfamoylpyridin-4-yl)nicotinamide]",94 nM
10,"Cc1cc(Cl)nc(N2CCC(F)(F)CC2)c1C(=O)Nc1cncc(S(N)(=O)=O)c1 [Example 11, 6-chloro-2-(4,4-difluoropiperidin-1-yl)-4-methyl-N-(5-sulfamoylpyridin-3-yl)nicotinamide]",212 nM
11,"COc1cc(NC(=O)c2c(N3CCCCCC3)nc(C)c(Cl)c2C)ccn1 [Example 187, 2-(azepan-1-yl)-5-chloro-N-(2-methoxy-4-pyridyl)-4,6-dimethyl-pyridine-3-carboxamide]",141 nM

# Molecules with a lower IC50, results first:
row,IC50,Structure (SMILES)
1,53 nM,"NS(=O)(=O)c1cc(NC(=O)c2cc(C(F)(F)F)cnc2N2CCC(F)(F)CC2)ccn1 [Example 175, 2-(4,4-difluoropiperidin-1-yl)-N-(2-sulfamoylpyridin-4-yl)-5-(trifluoromethyl) nicotinamide]"
2,57 nM,"CC1CN(c2ncc(C(F)(F)F)cc2C(=O)Nc2ccnc(S(C)(=O)=O)c2)CCC1(F)F (single isomer, unassigned) [Example 149, 2-[(3S or 3R)-4,4-difluoro-3-methyl-1-piperidyl]-N-(2-methylsulfonyl-4-pyridyl)-5-(trifluoro-methyl)pyridine-3-carboxamide]"
3,17 nM,"NS(=O)(=O)c1cc(NC(=O)c2cc(C3CC3)c(C(F)(F)F)nc2N2CCC(F)(F)CC2)ccn1 [Example 181, 5-cyclopropyl-2-(4,4-difluoropiperidin-1-yl)-N-(2-sulfamoylpyridin-4-yl)-6-(trifluoromethyl)nicotinamide]"
4,82 nM,"CC1CN(c2ncc(C(F)(F)F)cc2C(=O)Nc2ccnc(C(N)=O)c2)CCC1(F)F (single isomer, unassigned) [Example 157, N-(2-carbamoyl-4-pyridyl)-2-[(3R or 3S)-4,4-difluoro-3-methyl-1-piperidyl]-5-(trifluoromethyl)-pyridine-3-carboxamide]"
5,80 nM,"NS(=O)(=O)c1cc(NC(=O)c2ncc(Cl)nc2N2CCCC(F)(F)CC2)ccn1 [Example 216, 5-chloro-3-(4,4-difluoroazepan-1-yl)-N-(2-sulfamoylpyridin-4-yl)pyrazine-2-carboxamide]"
6,2 nM,"CC1CN(c2ncc(C(F)(F)F)cc2C(=O)Nc2ccnc(S(N)(=O)=O)c2)CCCC1(F)F (stereo not drawn) [Example 131, 2-(4,4-difluoro-3-methylazepan-1-yl)-N-(2-sulfamoylpyridin-4-yl)-5-(trifluoromethyl)nicotinamide]"
7,54 nM,"NS(=O)(=O)c1cc(NC(=O)c2cc(C(F)(F)F)cnc2N2CCOC(C(F)(F)F)CC2)ccn1 (single isomer, unassigned) [Example 118, (R or S)-N-(2-sulfamoylpyridin-4-yl)-5-(trifluoromethyl)-2-(7-(trifluoromethyl)-1,4-oxazepan-4-yl)nicotinamide]"
8,2.1 nM,"NS(=O)(=O)c1cc(NC(=O)c2ccc(C3CCC3)nc2N2CCCC(F)(F)CC2)ccn1 [Example 24, 6-cyclobutyl-2-(4,4-difluoroazepan-1-yl)-N-(2-sulfamoylpyridin-4-yl)nicotinamide]"
9,31 nM,"Cc1nc(N2CCC3(CC2)CC3)c(C(=O)Nc2cncc(S(N)(=O)=O)c2)c(C)c1Cl [Example 190, 2-(6-azaspiro[2.5]octan-6-yl)-5-chloro-4,6-dimethyl-N-(5-sulfamoyl-3-pyridyl)pyridine-3-carboxamide]"
10,84 nM,"CC1CN(c2ncc(C(F)(F)F)cc2C(=O)Nc2ccnc(C#N)c2)CCC1(F)F (single isomer, unassigned) [Example 154, (S or R)-N-(2-cyanopyridin-4-yl)-2-(4,4-difluoro-3-methylpiperidin-1-yl)-5-(trifluoro-methyl)nicotinamide]"
11,13 nM,"Cc1nc(N2CCC(F)(F)CC2)c(C(=O)Nc2ccnc(S(N)(=O)=O)c2)cc1F [Example 178, 2-(4,4-difluoropiperidin-1-yl)-5-fluoro-6-methyl-N-(2-sulfamoylpyridin-4-yl)nicotinamide]"
12,67 nM,"NS(=O)(=O)c1cc(NC(=O)c2cc(C3CC3)c(OCC(F)(F)F)nc2N2CCC(F)(F)CC2)ccn1 [Example 20, 5-cyclopropyl-2-(4,4-difluoropiperidin-1-yl)-N-(2-sulfamoylpyridin-4-yl)-6-(2,2,2-trifluoroethoxy)nicotinamide]"
13,18 nM,"Cc1nc(N2CCOC(C(F)F)CC2)c(C(=O)Nc2ccnc(S(N)(=O)=O)c2)cc1Cl (single isomer, unassigned) [Example 117, 5-chloro-2-[(7S or 7R)-7-(difluoromethyl)-1,4-oxazepan-4-yl]-6-methyl-N-(2-sulfamoylpyridin-4-yl)pyridine-3-carboxamide]"
